In general, pIC50 refers to the IC50 on a negative log10 scale, so that one unit is a factor of ten.

This is an account of results in PMC6013238, “Development of novel NEMO-binding domain mimetics for inhibiting IKK/NF-κB activation” (PLoS Biology, 2018).

One data set has as its system NEMO. As to conditions: ref [21], [32]–[34]; read-out: IC50, affinity to NEMO; cited from earlier work.
The next data set relates to NF-κB activation. Nature of the data set: Dual-luciferase (NF-κB firefly/SV40-Renilla) reporter assay, TNF-α-stimulated HEK293 cells. The class given is cell-based, human. As to conditions: for Relative luciferase activity (NF-κB/Renilla): Fig 4B, CTRL about 1; for NF-κB luciferase activity, dose-dependent curve: Fig S1A, CTRL about 100; for pIC50: Homo sapiens, HEK293, luciferase assays at 0, 25, 50, 100, 150 μM, GraphPad, read-out: IC50 of inhibition of TNF-α-mediated NF-κB activation.

Data set [1] can be described thus: Plasma and tissue concentrations 2 h after a single i.p. injection. The class given is in vivo, mouse. As to conditions: male, C57BL/6J, mouse, ip, 10 mg/kg, 2 h post single i.p. 10 mg/kg, single mice. The procedure: To determine the stability of the NBD mimetics in vivo, their levels were measured in the plasma of mice 2 h post i.p. injection with 10 mg/kg of each compound. The concentration of SR12460 was very high in plasma (>6.5 μg/mL; 20 μM), while levels in brain, muscle, spleen, and liver were lower. SR12343 and SR12454 had lower plasma concentrations, with SR12343 showing a higher level in liver and SR12454 showing higher concentrations in muscle and spleen. The level of SR11481 was undetectable in plasma and tissues (Fig 6A).
Fig 6 Newly identified NBD mimetics suppress LPS-induced acute inflammation in vivo. (A) The bioavailability property of SR12460, SR12343, SR12454, and SR11481. Concentrations of NBD mimetics were determined in plasma, brain, muscle, spleen, and liver 2 h post a single i.p. injection of 10 mg/kg of drugs; n = 3 per group. (B) Shown is the model to induce LPS-mediated acute inflammation and the treatment regimen with NBD mimetics. Mouse image via http://www.clker.com/clipart-mice-blank.html (copyright-free). (C) NBD mimetics suppressed LPS-induced acute inflammation in liver and lung by down-regulating NF-κB target gene expression. Vehicle, SR12343, SR12460, and 8K-NBD peptide were dosed at 10 mg/kg 30 min prior to the LPS treatment. Acute inflammation was induced by i.p. injection of 10 mg/kg LPS. Lung and liver were collected 2–4 h post injection, and mRNA was extracted for qRT-PCR analysis. (D, E) Western blot analysis was performed to probe for the expression of p-IκBα and COX-2 at protein level in liver and lung tissues. (F) Serum levels of IL-6 were determine by ELISA. n = 3–8 each group. *P < 0.05, **P < 0.01. Underlying data can be found in S1 Data. COX-2, cyclooxygenase 2; IL-6, interleukin 6; i.p., intraperitoneal; LPS, lipopolysaccharide; NBD, NEMO-binding domain; n.d., nondetectable; NEMO, NF-κB essential modulator; NF-κB, nuclear factor κB; qRT-PCR, quantitative real-time polymerase chain reaction. TEXT PRINTED IN THE PICTURE: (A) SR11481: Concentration (ng/ml): n.d. (plasma)
The pharmacokinetic profile of the NBD mimetics was determined in male C57BL/6J mice (n = 3). The drugs were formulated in 10:10:80 of DMSO:Tween 80:water and were dosed by i.p. injection at a final dose of 10 mg/kg. Blood, brain, muscle, spleen, and liver were collected 2 h post treatment and were analyzed by mass spectrometry by following a protocol previously described.

A further data set concerns NF-κB target genes. Nature of the data set: qRT-PCR of NF-κB target genes in LPS-stimulated Raw 264.7 cells. The class given is cell-based, mouse. Particulars: LPS 1 μg/ml 2 h; for COX2 mRNA expression (qRT-PCR) / IL6 mRNA expression (qRT-PCR) / IL-1b mRNA expression (qRT-PCR) / TNFa mRNA expression (qRT-PCR) / iNOS mRNA expression (qRT-PCR) / ikBa mRNA expression (qRT-PCR): Fig 4C, IKKi VII 2 μM, 8K-NBD 200 μM, SR compounds 50 μM, relative to no LPS; for Effect on transcription of NF-κB target genes (COX-2, IL-6, IL-1β, TNF-α, IκBα, iNOS): 50 μM.

For the next data set, the system named is IL-6 production. Nature of the data set: Mouse IL-6 ELISA of supernatant of LPS-stimulated Raw 264.7 cells. The class given is cell-based. Particulars: LPS 1 μg/ml 24 h; for mIL-6 in supernatant (ELISA): Fig 4D; for Effect on LPS-induced IL-6 production (ELISA): 25 and 50 μM. The procedure: Fig 4 Modified lead NBD mimetics inhibit TNF-α- and LPS-induced NF-κB activation by disrupting the association between NEMO and IKKβ. (A) Structures of top NBD mimetics. (B) Measurement of NF-κB activation in response to TNF-α by using Dual-luciferase reporter assays. HEK293 cells cotransfected with NF-κB luciferase reporter and SV40-Renilla plasmids were pretreated with DMSO or listed small molecules at 0, 25, 50, 100, and 150 μM for 30 min, followed by the induction of TNF-α for 3 h. Data shown are representative of 2–3 independent experiments. […] Raw 264.7 cells were pretreated with indicated drugs for 30 min and then stimulated with 1 μg/ml of LPS for 2 h. Cells were then harvested for RNA extraction and qRT-PCR analysis. Drug concentrations used are as follows: IKKi VII (2 μM), 8K-NBD peptide (200 μM), SR12343 (50 μM), SR12460 (50 μM), SR12454 (50 μM), and SR11481 (50 μM). Data are representative of 2 independent experiments. […] Raw 264.7 cells pretreated with DMSO or drugs at indicated concentrations were exposed to 1 μg/ml of LPS for 24 h, and supernatant was collected for ELISA analysis of mouse IL-6. *P < 0.05; **P < 0.01. Underlying data can be found in S1 Data. HEK293, human embryonic kidney 293 cells; IKK, IκB kinase; IL-6, interleukin 6; LPS, lipopolysaccharide; NBD, NEMO-binding domain; n.d., nondetectable; NEMO, NF-κB essential modulator; NF-κB, nuclear factor κB; qRT-PCR, […] real-time polymerase chain reaction; TNF-α; tumor necrosis factor α. TEXT PRINTED IN THE PICTURE: (D) ikki VII: mIL-6 (ng/ml): n.d. | (D) SR12460: mIL-6 (ng/ml): n.d. (50μM) | (D) SR12454: mIL-6 (ng/ml): n.d. (50μM) DOUBTS OF THE COPYIST ABOUT THIS PICTURE: Panel D: the only printed results are the three "n.d." labels. They stand in place of bars and are assigned to ikki VII, SR12460 50μM and SR12454 50μM by their position on the axis. All other results are shown only as bars, with no printed numbers.
To confirm the qRT-PCR results, the levels of IL-6 production in Raw 264.7 cells activated by LPS were analyzed by ELISA.
Raw 264.7 cells were grown in 96-well plates and pretreated with vehicle, IKKi VII (2 μM), and small molecules (at indicated concentration) for 1 h, followed by the stimulation with 1 μg/ml of LPS. Supernatant was collected 24 h later for ELISA analysis. IL-6 concentration was measured using a mouse IL-6 ELISA kit (BD) according to the manufacturer’s instructions.
Background: An ELISA detects its analyte on a solid surface through an enzyme-linked reagent.

pIC50: −log10 of the molar value. Several values for one entry are separate records, joined by “and”; a condition that tells them apart may be missing. Equal values may be shown once. Read-outs that look alike come from different tables or passages of the source.

Turning to “11-mer NBD peptide: traditional 11-mer NBD peptide of IKKβ (735–745) (TALDWSWLQTE; NEMO-binding domain peptide; UniProt O14920 735-745, looked up, fragment)”, the pIC50 in the data set with NEMO was roughly 4.00.
For `O=C(COC(=O)Cc1cc(F)cc(F)c1)Nc1ccc(Cl)cn1` [SR11481], in the data set on NF-κB activation (25 μM), the “Relative luciferase activity (NF-κB/Renilla)” value (“Relative luciferase activity” below) is 0.669 and 0.7893 and 1.108; the “NF-κB luciferase activity, dose-dependent curve” value (shortened to “NF-κB luciferase activity”) is 67 and 79 and 111. For the same compound, in the data set with NF-κB activation (50 μM), the “Relative luciferase activity” value was 0.3445 and 0.3583 and 0.2895; the “NF-κB luciferase activity” value was 34 and 36 and 29. Moreover, in the data set with NF-κB activation (100 μM), the “Relative luciferase activity” value was 0.1303 and 0.1653 and 0.168; the “NF-κB luciferase activity” value is 13 and 16 and 17. For the same compound, in the data set on NF-κB activation (150 μM), the “Relative luciferase activity” value was 0.2602 and 0.3121 and 0.2334; the “NF-κB luciferase activity” value is 26 and 31 and 23. Besides, the pIC50 in the data set with NF-κB activation is 4.35. The concentration at 2 h in data set [1] (plasma, read-out: Concentration in plasma) came out at 0 ng/mL. For the same compound, in the data set on NF-κB target genes, the “COX2 mRNA expression (qRT-PCR)” value was 591.346 and 521.171 and 682.383; the “IL6 mRNA expression (qRT-PCR)” value is 630.626 and 570.463 and 862.622; the “IL-1b mRNA expression (qRT-PCR)” value is 411.733 and 420.368 and 564.689; the “TNFa mRNA expression (qRT-PCR)” value was 96.3315 and 86.7639 and 154.495. For the same compound, in the data set on NF-κB target genes, the “iNOS mRNA expression (qRT-PCR)” value is 25.4503 and 21.5558 and 14.0886; the “ikBa mRNA expression (qRT-PCR)” value was 12.89 and 13.062 and 21.9932; the “Effect on transcription of NF-κB target genes (COX-2, IL-6, IL-1β, TNF-α, IκBα, iNOS)” value was “did not induce a detectable suppression”. Moreover, the “mIL-6 in supernatant (ELISA)” value in the data set with IL-6 production (25 μM) is 1.0708 ng/mL and 1.7487 ng/mL and 1.6903 ng/mL. For the same compound, the “mIL-6 in supernatant (ELISA)” value in the data set on IL-6 production (50 μM) is 2.4581 ng/mL and 2.0675 ng/mL and 2.2021 ng/mL. The “Effect on LPS-induced IL-6 production (ELISA)” value in the data set on IL-6 production is given as “significant reduction in the accumulation of IL-6 protein”.
Consider `O=C(COCCc1cc(F)cc(F)c1)Nc1ccc(Cl)cn1` [SR12454], for which, in the data set on NF-κB activation (25 μM), the “Relative luciferase activity” value is 0.3499 and 0.3985 and 0.4797; the “NF-κB luciferase activity” value was 35 and 40 and 48. Moreover, in the data set on NF-κB activation (50 μM), the “Relative luciferase activity” value was 0.1222 and 0.1389 and 0.1212; the “NF-κB luciferase activity” value was 12 and 14. In the data set on NF-κB activation (100 μM), the “Relative luciferase activity” value was 0.07928 and 0.07742 and 0.08432; the “NF-κB luciferase activity” value is 8 and 7.7 and 8.4. For the same compound, in the data set on NF-κB activation (150 μM), the “Relative luciferase activity” value was 0.1048 and 0.1061 and 0.0973; the “NF-κB luciferase activity” value is 10.4 and 10.6 and 9.7. Besides, the pIC50 with NF-κB activation was 4.69. The concentration at 2 h in data set [1] (liver, read-out: Concentration in liver) came to 50 ng/mL. Further, in the data set on NF-κB target genes, the “COX2 mRNA expression (qRT-PCR)” value was 150.094 and 139.148 and 109.409; the “IL6 mRNA expression (qRT-PCR)” value was 68.7623 and 55.5227 and 41.2895; the “IL-1b mRNA expression (qRT-PCR)” value is 114.812 and 133.157 and 94.1462; the “TNFa mRNA expression (qRT-PCR)” value was 50.3605 and 45.36 and 45.9381. In the data set with NF-κB target genes, the “iNOS mRNA expression (qRT-PCR)” value is 0.9093 and 0.7681 and 0.624; the “ikBa mRNA expression (qRT-PCR)” value was 6.788 and 6.238 and 5.4976; the “Effect on transcription of NF-κB target genes (COX-2, IL-6, IL-1β, TNF-α, IκBα, iNOS)” value is on record as “significantly inhibit the transcription of all NF-κB target genes tested”. In the data set with IL-6 production (25 μM), the “mIL-6 in supernatant (ELISA)” value was 0.9451 ng/mL and 1.2144 ng/mL and 1.5871 ng/mL. Moreover, in the data set on IL-6 production (50 μM), the “mIL-6 in supernatant (ELISA)” value is 0 ng/mL. Also, the “Effect on LPS-induced IL-6 production (ELISA)” value in the data set on IL-6 production was “inhibit IL-6 secretion significantly in a dose-dependent manner”.
With “IKKβ-derived peptide (701–746): longer IKKβ-derived peptide (701–746) with strongest affinity to NEMO (PAKKSEELVAEAHNLCTLLENAIQDTVREQDQSFTALDWSWLQTEE; UniProt O14920 701-746, looked up, fragment)”, in the data set on NEMO, the pIC50 was roughly 8.00.
